Measured values: patent publication US4808584A, “Quinolinecarboxylic acid derivatives and antibacterial agent containing the same” (Kanebo, Ltd., priority 1987, dated 1989)
Values after ≈ are worked out from the molar mass of the structure shown.

Tests used:
[1] = tested on: Proteus mirabilis IFO 3849; assay: Minimum inhibitory concentration (MIC); format: cell-based; details: IFO3849; Proteus mirabilis IFO 3849, Gram -
Experimental: (§1) The compounds of the present invention (A, C, E, F, G, H and I) and ofloxacin as control were dissolved in 0.1N aqueous potassium hydroxide to prepare a solution of 5000 μg/ml in concentration. The compounds of the present invention (B, D and J) were dissolved in sterilized distilled water to prepare a solution of 5000 μg/ml in concentration. Each solution was diluted with sterilized distilled water to prepare a standard solution with a concentration of each test compound: 1000 μg/ml. The test was carried out by a method approved by Japan Society of Chemotherapy [cf. Chemotherapy, 29, 76-79 (1981)(TOKYO)].

[2] = tested on: Pseudomonas aeruginosa IFO 3445; assay: Minimum inhibitory concentration (MIC); format: cell-based; details: Pseudomonas aeruginosa, IFO3445, Pseudomonas aeruginosa IFO 3445, Gram -
Experimental: as §1

[3] = tested on: Salmonella typhimurium IID 971; assay: Minimum inhibitory concentration (MIC); format: cell-based; details: Salmonella enterica, Salmonella typhimurium IID 971, Gram -; read-out: Minimum inhibitory concentration (MIC)
Experimental: as §1

[4] = tested on: Klebsiella pneumoniae PCI 602; assay: Minimum inhibitory concentration (MIC); format: cell-based; details: Klebsiella pneumoniae, PCI602, Klebsiella pneumoniae PCI 602, Gram -; read-out: Minimum inhibitory concentration (MIC)
Experimental: as §1

[5] = tested on: Morganella morganii IFO 3848; assay: Minimum inhibitory concentration (MIC); format: cell-based; details: IFO3848; Morganella morganii IFO 3848, Gram -
Experimental: as §1

[6] = tested on: Enterobacter cloacae 963; assay: Minimum inhibitory concentration (MIC); format: cell-based; details: Enterobacter cloacae 963, Gram -
Experimental: as §1

[7] = tested on: Streptococcus faecalis IID 682; assay: Minimum inhibitory concentration (MIC); format: cell-based; details: Enterococcus faecalis, IID682, Streptococcus faecalis IID 682, Gram +
Experimental: as §1

[8] = tested on: Proteus vulgaris OX-19; assay: Minimum inhibitory concentration (MIC); format: cell-based; details: OX19; Proteus vulgaris OX-19, Gram -; read-out: Minimum inhibitory concentration (MIC)
Experimental: as §1

[9] = tested on: Staphylococcus epidermidis IAM-1296; assay: Minimum inhibitory concentration (MIC); format: cell-based; details: Staphylococcus epidermidis, IAM1296, Staphylococcus epidermidis IAM-1296, Gram +
Experimental: as §1

[10] = tested on: Pseudomonas aeruginosa NCTC 10490; assay: Minimum inhibitory concentration (MIC); format: cell-based; details: Pseudomonas aeruginosa, NCTC10490, Pseudomonas aeruginosa NCTC 10490, Gram -
Experimental: as §1

[11] = tested on: Serratia marcescens IAM 1184; assay: Minimum inhibitory concentration (MIC); format: cell-based; details: Serratia marcescens, IAM1184, Serratia marcescens IAM 1184, Gram -
Experimental: as §1

[12] = tested on: Bacillus subtilis ATCC 6633; assay: Minimum inhibitory concentration (MIC); format: cell-based; details: ATCC6633; Bacillus subtilis ATCC 6633, Gram +; read-out: Minimum inhibitory concentration (MIC)
Experimental: as §1

[13] = tested on: Pseudomonas aeruginosa E-2; assay: Minimum inhibitory concentration (MIC); format: cell-based; details: E2; Pseudomonas aeruginosa E-2, Gram -
Experimental: as §1

[14] = tested on: Escherichia coli KC-14; assay: Minimum inhibitory concentration (MIC); format: cell-based; details: KC14; Escherichia coli KC-14, Gram -
Experimental: as §1

[15] = tested on: Micrococcus luteus ATCC 9341; assay: Minimum inhibitory concentration (MIC); format: cell-based; details: ATCC9341; Micrococcus luteus ATCC 9341, Gram +
Experimental: as §1

[16] = tested on: Acinetobacter calcoaceticus AC 54; assay: Minimum inhibitory concentration (MIC); format: cell-based; details: Acinetobacter calcoaceticus, AC54, Acinetobacter calcoaceticus AC 54, Gram -
Experimental: as §1

[17] = tested on: Enterobacter aerogenes ATCC 13048; assay: Minimum inhibitory concentration (MIC); format: cell-based; details: Klebsiella aerogenes, ATCC13048, Enterobacter aerogenes ATCC 13048, Gram -
Experimental: as §1

[18] = tested on: Shigella sonnei EW-33; assay: Minimum inhibitory concentration (MIC); format: cell-based; details: EW33; Shigella sonnei EW-33, Gram -
Experimental: as §1

[19] = tested on: Citrobacter freundii NIHJ 10018-68; assay: Minimum inhibitory concentration (MIC); format: cell-based; details: NIHJ10018; Citrobacter freundii NIHJ 10018-68, Gram -
Experimental: as §1

[20] = tested on: Escherichia coli NIHJ JC-2; assay: Minimum inhibitory concentration (MIC); format: cell-based; details: NIHJJC2; Escherichia coli NIHJ JC-2, Gram -
Experimental: as §1

[21] = tested on: Staphylococcus aureus FDA 209P JC-1; assay: Minimum inhibitory concentration (MIC); format: cell-based; details: FDA209P; Staphylococcus aureus FDA 209P JC-1, Gram +
Experimental: as §1

[22] = tested on: Staphylococcus aureus IID 803; assay: Minimum inhibitory concentration (MIC); format: cell-based; details: IID803; Staphylococcus aureus IID 803, Gram +; read-out: Minimum inhibitory concentration (MIC)
Experimental: as §1

[23] = tested on: bacteria; details: prior art, U.S. Pat. No. 4,382,892; cited from earlier work
[24] = tested on: E. coli KC-14; assay: Effect on treatment of infectiousness of the genito-urinary tract; format: in vivo, ICR female mice; details: Escherichia coli, KC14, 48 h; E. coli KC-14, 5.6×10^5 CFU/mouse into urinary bladder; oral; not more than 10^4 living bacteria/1 g of kidney regarded as effective
Experimental: 2. Test microorganism and inoculum size E. coli KC-14 (5.6×10^5 CFU/mouse) 3. Method:
A microorganism solution (0.1 ml) prepared in the same manner as described in Experiment 3 was introduced into urinary bladder through urinary tract of ICR female mice (5 weeks age, weighing 20 to 22 g, 5 mice in each group), and then urinary meatus was clasped with clip for 4 hours to infect the animals. After taking off the clip, the compound (B) of the present invention dissolved in sterilized distilled water or ofloxacin suspended in 0.5% aqueous sodium carboxymethyl cellulose solution was orally administered to mice. Two days after the infection, mice kidneys were taken out and weighed, to which PBS (Dulbecco's phosphate buffered saline) was added and the mixture was homogenized. The homogenate was then diluted with PBS and inoculated onto a plate of modified Drigalski Agar (BTB lactose agar "Nissui", made by Nissui Seiyaku K.K., Japan) and cultured at 37° C. for 18 hours. The number of the colonies of infectious bacteria grown on the plate was counted. The number of living bacteria per 1 g of kidney was calculated from the number of colonies and the kidney weight. The living bacteria number/1 g of kidney of not more than 10^4 was regarded as effective and an effective dose for 50% mice (ED50) was calculated by Weil method.

CC1COc2c(N3CCN(C)CC3)c(F)cc3c(=O)c(C(=O)O)cn1c23 (racemic) [Ofloxacin, reference compound]
MIC [1]: 0.39 µg/mL (≈ 1.08 µM) | MIC [2]: 1.56 µg/mL (≈ 4.32 µM) | MIC [3]: 0.05 µg/mL (≈ 0.138 µM) | MIC [4]: 0.05 µg/mL (≈ 0.138 µM) | MIC [5]: 0.1 µg/mL (≈ 0.277 µM) | MIC [6]: 0.2 µg/mL (≈ 0.553 µM) | MIC [7]: 1.56 µg/mL | MIC [8]: 0.05 µg/mL (≈ 0.138 µM) | MIC [9]: 0.78 µg/mL | MIC [10]: 1.56 µg/mL (≈ 4.32 µM) | MIC [11]: 0.78 µg/mL (≈ 2.16 µM) | MIC [12]: 0.1 µg/mL (≈ 0.277 µM) | MIC [13]: 1.56 µg/mL (≈ 4.32 µM) | MIC [14]: 0.1 µg/mL (≈ 0.277 µM) | MIC [15]: 3.13 µg/mL | MIC [16]: 0.39 µg/mL (≈ 1.08 µM) | MIC [17]: 0.1 µg/mL (≈ 0.277 µM) | MIC [18]: 0.05 µg/mL (≈ 0.138 µM) | MIC [19]: 0.39 µg/mL (≈ 1.08 µM) | MIC [20]: 0.1 µg/mL (≈ 0.277 µM) | MIC [21]: 0.39 µg/mL | MIC [22]: 0.39 µg/mL (≈ 1.08 µM) | antibacterial activity (in words) [23]: excellent antibacterial activity | ED50 [24]: 50 mg/kg
